Patent US20190290641A1, “5-HYDROXYTRYPTAMINE 1B RECEPTOR-STIMULATING AGENT FOR SKIN AND/OR HAIR REPAIR” (INSTITUT PASTEUR, priority 2016, published 2019)

Assays:
hair growth in patients = settings: about 100 patients, cited from earlier work
5HT1 BR = target: T1, 5HT1 BR (Mus musculus, UniProt P28334); test: Wound closure with topical 5HT1 BR agonist, with or without 5HT1 BR antagonist; assay type: in vivo, mice; settings: for size of the wound: 6 days post injury, control 15.09±2.3
T1 construct: from tissue; host or cells: live mice, skin wound (in vivo)
T1 sequence (P28334 whole entry): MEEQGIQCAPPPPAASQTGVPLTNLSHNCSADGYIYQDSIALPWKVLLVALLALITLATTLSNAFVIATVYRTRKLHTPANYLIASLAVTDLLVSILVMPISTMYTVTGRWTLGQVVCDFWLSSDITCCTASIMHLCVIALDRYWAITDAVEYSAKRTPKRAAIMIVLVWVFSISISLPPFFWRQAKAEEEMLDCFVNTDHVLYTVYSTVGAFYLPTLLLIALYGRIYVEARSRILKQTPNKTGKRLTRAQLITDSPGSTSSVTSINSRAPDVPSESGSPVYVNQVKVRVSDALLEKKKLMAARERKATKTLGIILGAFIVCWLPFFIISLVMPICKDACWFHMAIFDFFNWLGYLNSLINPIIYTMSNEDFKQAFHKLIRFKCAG
Procedure: Mice were treated with another 5HT1 BR agonist (CP 94253) directly on the wound (topic administration) at a concentration of 0.5 μmol, 12 h after a wound injury.
No pretreatment was performed on this set of experiments and the drug was administered once a day for the totality of the duration of the wound closure. Controls group received PBS topically only, once a day for the total duration of the treatment.

[1] = system: 8 mm biopsy wound of the skin in C57Bl/6 mice; test: Wound healing after 8 mm skin biopsy, per os treatment, macroscopic wound size; assay type: in vivo; settings: for wound in average smaller than placebo: between the 4th and the 14th day post-injury; for size of the wound vs placebo in the course of wound closure: until 16 days post injury
Procedure: (§1) All procedures in this study were approved by the Animal Care and Use committee at the Institut Pasteur (CETEA 2016-0007). Unless specified, 6 weeks old male mice C57Bl/6Rj were used in this study and housed on a 12:12 light/dark cycle in a pathogen free facility with controlled temperature and humidity. Food and drink were given ad libitum. Fluoxetine was dissolved in 0.9% NaCl and delivered either by intra peritoneal injections or per os at 18 mg/Kg. Control group received daily injections of 0.9% NaCl. For vortioxetine mice also received the product either dissolved in 96% Ethanol and then diluted 1/200 in water ad libitum at 20 mg/kg or dissolved in 96% Ethanol and then diluted 1/200 in 0.9% NaCl, final concentration 20 mg/kg body weight corrected. For topical applications vortioxetine was dissolved in 0.9% Nacl and directly applied in the wound the 3 first days and then on top on the wound the following days, every day.
(§2) Mice were anesthetized using Isoflurane, initially in an induction chamber. The anaesthetised mice were transferred to the anaesthetic nose-cone and maintained on a heated block throughout the procedure (typically for about 5 minutes). Analgesic was administered by subcutaneous injection e.g. buprenorphine 1.5 μl of […] solution, diluted in 30 μl sterile water. The area of the biopsy was shaved. Then an area of dorsal skin was rendered sterile by swabbing with Videne surgical scrub followed by sterile water. A 8 mm sterile punch biopsy was used to create an incision through the epidermis/dermis to the muscle fascia. Any bleeding at this step was carefully avoided. The punch biopsy was removed and the skin separated from muscle connective tissues using forceps or blunted scissors. Mice were then removed from the anesthetic nose-cone and housed in sterilised cages containing paper liner and paper bedding. They were kept warm (using a cage placed on a heated mat) until fully recovered from the effects of the anaesthetic.
In order to assess the regenerative potential of the skin, a 8 mm biopsy of the skin was performed in C57Bl/6 mice, which were either treated per os with fluoxetine at 18 mg/kg or with vortioxetine at 20 mg/kg for 6 weeks and 12 days respectively (FIG. 1A) and during the healing process.

[2] = system: 8 mm biopsy wound of the skin in C57Bl/6 mice; test: Histological analysis of the wound (H&E, re-epithelization, Ki67 immunostaining); assay type: in vivo; settings: for cell infiltration in the dermis vs placebo / number of Ki67+ cells (proliferating cells) in the wound vs placebo / open wounded area vs placebo (H&E): 5 days post injury; for number of cycling cells vs placebo: 14 days post injury; for number of vessels: at the time of the biopsy (T0), H&E, per os treatment, placebo 4.8±1.3; for length of the epithelial tongues vs placebo: day 5 after injury; for distances between the tips of the epithelial tongues vs placebo: day 5 after wounding
Procedure: Width of the wound and distance of the traversed epithelium were measured on H&E.
Percent of re-epithelization was calculated according to the following formula: [distance covered by epithelium]/[distance between wound bed]×100.
The extent of epithelialization and granulation tissue formation was determined on H&E-stained paraffin tissue sections. The length of the epithelial tongue was determined as the distance that the neo-epithelium had migrated from the margin of the wound as defined by the presence of hair follicles in non-wounded skin.
Immunostaining was performed on formol fixed sections. Permeabilized with 0.5% Triton X-100 20 min at room temperature, washed, and blocked with 10% BSA for 30 min. Sections were incubated with primary antibodies overnight at 4° C. and with Alexa-conjugated secondary antibodies 1/250 and Hoechst for 45 minutes. Sections were then analysed using an automated axioscan (Zeiss) or inverted Observer.Z1 Apotome (Zeiss).
To further characterize the wound closure, histological analysis was performed at the time of the biopsy (T0), 5 days post injury and 14 days post injury.

[3] = system: hair growth of shaved mice; test: Hair growth after shaving (clippers) or depilation (wax); assay type: in vivo; settings: for hair regeneration after shaving: 5 and 10 days after shaving; for hair growth, differences between the groups: 24 days after shaving; for growth of hairs in both protocols (clippers, wax): after shaving or depilation
Procedure: 2 different protocols were used to remove the hair from the mice. Mice were anesthetized using Isoflurane, initially in an induction chamber. The anaesthetised mice were transferred to the anaesthetic nose-cone and maintained on a heated block throughout the procedure (typically for about 5 minutes). In protocol 1, shaving was performed by cutting the hair: the mice were gently restrained manually and half of their back was shaved with portable electric hair clippers. In protocol 2, some hair was firstly removed with forceps and wax was used to unstack the hair. The wax was applied twice for maximum efficiency.
The skin color of the mouse skin was measured three times in 5 different locations of the shaved skin randomly and averaged within a 16×16 mm2 field, using ImageJ. The luminance measured reflects the relative darkness ranging from white (0) to black (1 0 0).
In order to study the influence of fluoxetine or vortioxetine on hair growth after a stress 2 different protocols were used on the same mouse. The half right part of the mouse back was shaved by cutting the hair with hairs clippers, and, in parallel, the hairs were removed using wax to unstack the hairs on the left part of the back (FIG. 4G). […] This was still true 10 days after shaving with longer hairs in the treated animals compared with placebo (FIG. 4J,M,N). […] These observations are in favor of a faster growth and faster regeneration but not bigger or longer hairs.

[4] = system: hair and hair follicle of mice; test: Hair and skin measurements after treatment without shaving; assay type: in vivo; settings: no shaving; for hair size: per os fluoxetine 18 mg/kg 6 weeks, vortioxetine 20 mg/kg 12 days; for hair follicle length / skin thickness: per os
Procedure: as §1
To study the possible effect of fluoxetine and vortioxetine on hair growth, fluoxetine (at 18 mg/kg) or vortioxetine (at 20 mg/kg) was provided per os to mice for 6 weeks and 12 days, respectively. […] However, when the hairs were challenged with shaving or depilation, a faster growth of hairs was observed

[5] = system: 8 mm biopsy wound of the skin in C57Bl/6 mice; test: Wound healing after 8 mm skin biopsy, topical application without pre-treatment; assay type: in vivo
Procedure: as §1, §2
To further confirm the data, the same protocol was performed on C57Bl/6 mice wounded with 8 mm biopsy, but this time the mice were not pre-treated and received topical (300 μl) applications of vortioxetine at a concentration of 20 mg/ml diluted in 96% ethanol. The placebo received the same amount of 96% ethanol. […] Six days post injury, the size of the wound was smaller in the animals topically treated with vortioxetine (FIG. 1L). Eight days post injury, the size of the wound was 10 times lower than the placebo (FIG. 1L).

[6] = first 24 hours, per os fluoxetine 18 mg/kg 6 weeks or vortioxetine 20 mg/kg 12 days pre-treatment and during healing
[7] = six days post injury, per os, placebo 15.67
[8] = sixteen days post injury, per os
[9] = sixteen days post injury, per os, placebo 0.5

SMILES	wound in average smaller than placebo [1] [%]	size of the wound vs placebo [1, 6]	size of the wound vs placebo ([1]; four days post injury, per os)	area of the wound [1, 7] [mm^2]	skin regeneration at the macroscopic level [1, 8]	area of the wound [1, 9] [mm^2]	size of the wound vs placebo in the course of wound closure ([1]; per os)	cell infiltration in the dermis vs placebo [2]	number of Ki67+ cells (proliferating cells) in the wound vs placebo [2]	open wounded area vs placebo (H&E) [2]	number of cycling cells vs placebo [2]	number of vessels [2] [vessels/mm^2]	length of the epithelial tongues vs placebo [2]	distances between the tips of the epithelial tongues vs placebo [2]	hair regeneration after shaving [3]	hair growth vs placebo ([3]; 5 days after shaving)	hair growth vs placebo ([3]; 10 days after shaving)	hair growth, differences between the groups [3]	growth of hairs in both protocols (clippers, wax) [3]	hair size [4]	further results
CCOC(=O)c1ccnc(C(=O)OCC)c1 [stemoxydin]																					new hairs compared to the normal average of 50 to 100 new hairs growing every day (hair growth in patients; 90 days): 4%; average new hairs (hair growth in patients; in 90 days): 1500 new hairs
COc1ccc(NC(=O)c2ccc(-c3ccc(-c4noc(C)n4)cc3C)cc2)cc1N1CCN(C)CC1 [GR127935]																					size of the wound (5HT1 BR; antagonist by osmotic pumps at 4 mg/kg concomitant with topical agonist CP 94253): 10.3±3.1; effect of the antagonist on the positive effects of the agonist (5HT1 BR; osmotic pumps at 4 mg/kg, concomitant with CP 94253): blocked partially
CCCOc1ccc2[nH]cc(C3=CCNCC3)c2n1 [CP 94253]																					size of the wound (5HT1 BR; topical 0.5 μmol once a day from 12 h after injury, no pretreatment): 7.7±2.5
CNCCC(Oc1ccc(C(F)(F)F)cc1)c1ccccc1 (stereo not drawn) [fluoxetine]	27	No difference	smaller	11.48	virtually completely regenerated	0.05	constantly smaller	more cells	higher	smaller	No differences	8.2±2.7	significantly increased	significantly shorter	more advanced, faster regeneration of the hairs	More advanced hair growth	longer hairs	no differences	faster growth	No differences	size of the wound vs placebo ([1]; two days post injury, per os): smaller; hair follicle length [4]: No differences; skin thickness [4]: did not change
Cc1ccc(Sc2ccccc2N2CCNCC2)c(C)c1 [vortioxetine, 1-[2-(2,4-Dimethylphenylsulfanyl)phenyl]piperazine]	35	No difference	smaller	10.10	virtually completely regenerated	0.05	constantly smaller	more cells	higher	smaller	No differences	8.7±3.5	significantly increased	significantly shorter	more advanced, faster regeneration of the hairs	More advanced hair growth	longer hairs	no differences	faster growth	No differences	hair follicle length [4]: No differences; skin thickness [4]: did not change; sizes of the wounds vs placebo ([5]; T0 to 4 days post injury, topical 300 μl of 20 mg/ml, no pre-treatment): No differences; size of the wound relative to placebo ([5]; eight days post injury, topical): 10 times lower than the placebo; size of the wound vs placebo ([5]; six days post injury, topical): smaller; wound closure ([5]; sixteen days post injury, topical, placebo 0.20 mm^2): virtually completely closed
